From paper PMC10797628 come the findings set out here.

Experiment [1] addresses T1, human 5-HT1A receptor (Homo sapiens, UniProt P08908).
T1 construct: host or cells: HEK293T
T1 sequence (P08908 1-422): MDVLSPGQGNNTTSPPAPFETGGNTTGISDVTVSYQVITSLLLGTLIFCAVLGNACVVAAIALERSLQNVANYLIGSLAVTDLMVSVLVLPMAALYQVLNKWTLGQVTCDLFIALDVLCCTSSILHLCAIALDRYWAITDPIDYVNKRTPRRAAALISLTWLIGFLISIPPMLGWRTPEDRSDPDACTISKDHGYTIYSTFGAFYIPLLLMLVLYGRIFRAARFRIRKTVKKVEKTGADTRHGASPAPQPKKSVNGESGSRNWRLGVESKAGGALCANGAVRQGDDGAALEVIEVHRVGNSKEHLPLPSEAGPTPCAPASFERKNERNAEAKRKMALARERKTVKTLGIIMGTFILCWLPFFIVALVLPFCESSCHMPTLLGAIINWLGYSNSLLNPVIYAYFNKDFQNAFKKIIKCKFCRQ
The experiment can be described thus: Radioligand binding (saturation and competition), WT 5-HT1A. The settings on record: WT receptor, [^3H]5-CT competition, mean ± SD; for Ki: Affinity (pKi ± SD) 5-HT1A.

Experiment [2] concerns the target T2, human 5-HT1B receptor (Homo sapiens, UniProt P28222).
T2 construct: host or cells: HEK293T
In words: Radioligand binding (saturation and competition), WT 5-HT1B. Conditions: Affinity (pKi ± SD) 5-HT1B, WT receptor; [^3H]5-CT competition; mean ± SD.

Experiment [3] addresses T3, human 5-HT1D receptor (Homo sapiens, UniProt P28221).
T3 construct: host or cells: HEK293T
In words: Radioligand binding (saturation and competition), WT 5-HT1D. Conditions: Affinity (pKi ± SD) 5-HT1D, WT receptor; [^3H]5-CT competition; mean ± SD.

In the next experiment the target is T4, human 5-HT1F receptor (Homo sapiens, UniProt P30939).
T4 construct: host or cells: HEK293T
T4 sequence (P30939 1-366): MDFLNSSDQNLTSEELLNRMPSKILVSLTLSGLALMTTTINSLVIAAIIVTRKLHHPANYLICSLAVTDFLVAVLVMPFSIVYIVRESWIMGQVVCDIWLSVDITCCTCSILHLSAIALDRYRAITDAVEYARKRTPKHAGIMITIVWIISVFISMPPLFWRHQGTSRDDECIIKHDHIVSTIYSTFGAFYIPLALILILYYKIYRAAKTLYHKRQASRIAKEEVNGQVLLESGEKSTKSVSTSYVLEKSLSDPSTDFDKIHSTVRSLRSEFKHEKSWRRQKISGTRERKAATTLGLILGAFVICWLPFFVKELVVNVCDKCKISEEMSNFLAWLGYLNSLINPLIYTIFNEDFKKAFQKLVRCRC
In words: Radioligand binding (saturation and competition), WT 5-HT1F.

Experiment [4] has as its target T1, human 5-HT1A receptor. In words: cAMP accumulation (LANCE Ultra TR-FRET) in HEK293T cells, WT 5-HT1A. Format: cell-based. Conditions: for EC50: 5-HT1A pEC50, WT receptor, cAMP accumulation, HEKt cells, mean ± SD; for Emax: HEK-293T, read-out: 5-HT1A EMAX (%), WT receptor; for Emax / 5-HT1A EMAX (%): normalized to basal (0%) and 10 μM 5-CT (100%); for 5-HT1A EMAX (%): WT receptor. The method, then:
(§1) Briefly, cells transfected with the desired receptor construct and compounds were incubated in the dark for 90 min at 37 °C. After incubation, cAMP detection reagents were added, and TR-FRET was used to quantify the cAMP produced.
(§2) The functional activity of compounds was determined by stimulating cells expressing the desired receptor with FSK and test compound in parallel with 12 known concentrations of cAMP. The known concentrations of cAMP were used to create a standard curve for each experiment that was used to interpolate the unknown values of cAMP in wells with test compounds. […] The EC50 and EMAX values were determined using the “dose response – log[agonist] vs response (three parameter)” nonlinear regression model in Prism and transformed to pEC50 values, reported as mean ± SD.
(§3) Summary of functional assay conditions at various 5-HT1 receptor point mutation constructs.
(In general: cAMP levels reflect the balance of adenylyl cyclase and phosphodiesterase activity.)

The target of experiment [5] is T2, human 5-HT1B receptor. In words: cAMP accumulation (LANCE Ultra TR-FRET) in HEK293T cells, WT 5-HT1B. It is filed as cell-based. Conditions: for EC50: 5-HT1B pEC50, WT receptor; for Emax: HEK-293T, read-out: 5-HT1B EMAX (%), WT receptor; for Emax / 5-HT1B EMAX (%): normalized to basal (0%) and 10 μM 5-CT (100%). As for the experimental part:
as §1, §2, §3

In experiment [6] the target is T3, human 5-HT1D receptor. In words: cAMP accumulation (LANCE Ultra TR-FRET) in HEK293T cells, WT 5-HT1D. Format: cell-based. The settings on record: for EC50: 5-HT1D pEC50, WT receptor, cAMP accumulation, HEKt cells, mean ± SD; for Emax: HEK-293T, read-out: 5-HT1D EMAX (%), WT receptor; for Emax / 5-HT1D EMAX (%): normalized to basal (0%) and 10 μM 5-CT (100%); for 5-HT1D EMAX (%): WT receptor. As for the experimental part:
as §1, §2, §3

The next experiment deals with S5.42A 5-HT1B receptor (Homo sapiens, UniProt P28222, S212A). In words: cAMP accumulation in HEK293T cells, S5.42A 5-HT1B. Conditions: point-mutated receptor, 3 independent experiments. It is filed as cell-based. Also noted: host or cells: HEK293T. The method, then:
as §1, §2
Cell Type Receptor Cell Density [Forskolin] Incubation time
as §3

Where [7] appears, read: cAMP accumulation, HEKt cells, mean ± SD.

Each structure is given as a SMILES string.

T2 sequence (P28222 whole entry): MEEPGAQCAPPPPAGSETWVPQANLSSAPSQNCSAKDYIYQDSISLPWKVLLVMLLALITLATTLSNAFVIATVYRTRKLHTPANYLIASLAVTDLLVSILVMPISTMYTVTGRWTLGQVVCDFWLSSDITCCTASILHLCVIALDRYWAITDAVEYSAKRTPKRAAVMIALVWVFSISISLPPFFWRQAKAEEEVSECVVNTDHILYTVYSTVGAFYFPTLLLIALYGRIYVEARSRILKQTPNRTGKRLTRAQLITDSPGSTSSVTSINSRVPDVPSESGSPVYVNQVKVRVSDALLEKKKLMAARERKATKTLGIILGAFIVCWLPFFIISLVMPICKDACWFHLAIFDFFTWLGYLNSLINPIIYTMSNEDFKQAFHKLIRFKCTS
T3 sequence (P28221 whole entry): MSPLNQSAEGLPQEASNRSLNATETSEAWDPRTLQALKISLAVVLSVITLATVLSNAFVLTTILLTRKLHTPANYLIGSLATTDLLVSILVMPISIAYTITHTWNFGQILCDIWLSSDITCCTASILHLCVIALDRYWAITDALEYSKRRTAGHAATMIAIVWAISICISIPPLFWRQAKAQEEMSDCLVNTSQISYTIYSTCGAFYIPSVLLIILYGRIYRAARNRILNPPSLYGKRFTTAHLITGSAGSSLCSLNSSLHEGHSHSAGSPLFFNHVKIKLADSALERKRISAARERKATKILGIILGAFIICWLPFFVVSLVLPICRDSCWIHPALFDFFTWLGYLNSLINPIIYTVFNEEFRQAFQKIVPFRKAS
S5.42A 5-HT1B receptor, sequence (P28222 whole entry S212A): as the sequence (P28222 whole entry) above, with S212A counted along it

On to `CCCN(CCC)[C@H]1CCc2c(cccc2-c2ccccc2Cl)C1` [(S)-DCPT], for which the Ki (as a rule, a dissociation constant, usually derived from enzyme kinetics or from competition with a known ligand) at human 5-HT1A receptor [1] was 1.41 nM; at human 5-HT1B receptor [2], 0.398 nM; at human 5-HT1D receptor [3], 0.562 nM; on human 5-HT1F receptor, 7.59 µM. Also, the results for the concentration giving a half-maximal response (EC50) on human 5-HT1A receptor [4], on human 5-HT1B receptor [5] (setting [7]) and on human 5-HT1D receptor [6] were 26.3 nM, 0.288 nM and 2.4 nM, respectively. Also, the Emax (in general, the greatest response seen or fitted, relative to the assay's reference) at human 5-HT1A receptor [4] was 92 ± 4%; at human 5-HT1B receptor [5], over 90%; on human 5-HT1D receptor [6], 101 ± 2%. In addition, the “5-HT1B EMAX (%)” value on human 5-HT1B receptor [5] (WT receptor) came out at 103 ± 2%.
Consider `CN(C)[C@H]1CCc2c(cccc2-c2ccccc2Cl)C1` [(S)-CPT], for which the Ki at human 5-HT1A receptor [1] was 5.75 nM; on human 5-HT1B receptor [2] it was 0.891 nM; at human 5-HT1D receptor [3], 0.447 nM; on human 5-HT1F receptor it was over 10 µM. The EC50 (in general, the concentration needed to bring the measured effect to its halfway point) was 43.7 nM at human 5-HT1A receptor [4], 0.347 nM at human 5-HT1B receptor [5] (setting [7]) and 2.24 nM at human 5-HT1D receptor [6]. Further, the Emax on human 5-HT1A receptor [4] is 91 ± 2%; on human 5-HT1B receptor [5], over 90%; at human 5-HT1D receptor [6], 101 ± 1%. Besides, the “5-HT1B EMAX (%)” value on human 5-HT1B receptor [5] (WT receptor) is reported as 100 ± 1%.
Take `CN(C)[C@H]1CCc2c(cccc2-c2cccs2)C1` [(S)-TAT]: the Ki is 6.17 nM on human 5-HT1A receptor [1], 6.31 nM on human 5-HT1B receptor [2], 1.7 nM at human 5-HT1D receptor [3] and over 10 µM at human 5-HT1F receptor. The EC50 on human 5-HT1A receptor [4] is 23.4 nM; on human 5-HT1B receptor [5] (setting [7]), 15.8 nM; on human 5-HT1D receptor [6] it was 41.7 nM. The Emax on human 5-HT1A receptor [4] amounted to 91 ± 3%; at human 5-HT1B receptor [5] it was 85 ± 4%; on human 5-HT1D receptor [6], 60 ± 3%.
In the case of `CN(C)[C@H]1CCc2c(cccc2-c2ccco2)C1` [(S)-FAT], the “Affinity (pKi ± SD) 5-HT1A” value at human 5-HT1A receptor [1] was found to be 7.48 ± 0.06. The Ki on human 5-HT1B receptor [2] was 132 nM; at human 5-HT1D receptor [3] it was 11.7 nM; at human 5-HT1F receptor it was 9.33 µM. Moreover, the EC50 on human 5-HT1A receptor [4] is 490 nM; at human 5-HT1B receptor [5] (setting [7]) it was 117 nM; on human 5-HT1D receptor [6], 12 nM. In addition, the Emax on human 5-HT1A receptor [4] amounted to 92 ± 4%; on human 5-HT1B receptor [5], 102 ± 3%; at human 5-HT1D receptor [6], 100 ± 2%.
Regarding `NCCc1c[nH]c2ccc(C(N)=O)cc12` [5-CT, 5-carboxamidotryptamine, reference compound], at human 5-HT1B receptor [5] (WT receptor, cAMP accumulation, HEKt cells, mean ± SD), the “5-HT1B pEC50” value turned out to be 8.46 ± 0.18. Moreover, the “5-HT1B EMAX (%)” value at human 5-HT1B receptor [5] (WT receptor) worked out at 100 ± 1%. Further, the “5-HT1D EMAX (%)” value at human 5-HT1D receptor [6] was 101 ± 1%. Besides, at S5.42A 5-HT1B receptor, the “change in potency (qualitative)” value is recorded as “significant reduction”.
Consider `CCCN(CCC)[C@H]1CCc2c(cccc2-c2ccccc2F)C1` [(S)-DFPT], for which the Ki on human 5-HT1A receptor [1] is 1.45 nM; at human 5-HT1B receptor [2] it was 2 nM; at human 5-HT1D receptor [3] it was 0.155 nM; at human 5-HT1F receptor it was 8.51 µM. In addition, the results for the EC50 on human 5-HT1A receptor [4], on human 5-HT1B receptor [5] (setting [7]) and on human 5-HT1D receptor [6] were 12.6 nM, 1.23 nM and 1.17 nM, respectively. For the same molecule, the values for the Emax on human 5-HT1A receptor [4], at human 5-HT1B receptor [5] and on human 5-HT1D receptor [6] were 100 ± 2%, over 90% and 99 ± 2%, respectively. For the same molecule, on human 5-HT1B receptor [5] (WT receptor), the “5-HT1B EMAX (%)” value was 100 ± 2%.
Take `CN(C)[C@H]1CCc2c(cccc2-c2ccccc2)C1` [(S)-5-PAT]: at human 5-HT1A receptor [1], the “Affinity (pKi ± SD) 5-HT1A” value was 8.20 ± 0.04. Moreover, the Ki on human 5-HT1B receptor [2] was 10.2 nM; on human 5-HT1D receptor [3], 0.661 nM; on human 5-HT1F receptor, 6.76 µM. The values for the EC50 at human 5-HT1A receptor [4], on human 5-HT1B receptor [5] (setting [7]) and at human 5-HT1D receptor [6] were 70.8 nM, 14.5 nM and 0.741 nM, respectively. Also, the values for the Emax at human 5-HT1A receptor [4], on human 5-HT1B receptor [5] and at human 5-HT1D receptor [6] were over 90%, about 30% and over 90%, respectively. Also, the “5-HT1A EMAX (%)” value at human 5-HT1A receptor [4] was determined as 100 ± 2%. On human 5-HT1B receptor [5] (WT receptor), the “5-HT1B EMAX (%)” value is listed as 28 ± 3%. The “5-HT1D EMAX (%)” value at human 5-HT1D receptor [6] amounted to 97 ± 2%. The “more potent at the 5-HT1D receptor compared to 5-HT1A and 5-HT1B receptors” value at human 5-HT1D receptor [6] (cAMP potency ratio) is given as “over 10 fold”.
For `CN(C)[C@H]1CCc2c(cccc2-c2cccn2C)C1` [(S)-NMP], the Ki at human 5-HT1A receptor [1] was 20.4 nM; at human 5-HT1B receptor [2], 5.75 nM; on human 5-HT1D receptor [3] it was 3.98 nM; on human 5-HT1F receptor, over 10 µM. Further, the EC50 at human 5-HT1A receptor [4] is 27.5 nM; at human 5-HT1B receptor [5] (setting [7]), 11.2 nM; on human 5-HT1D receptor [6], 8.32 nM. For the same molecule, the maximal effect (Emax) on human 5-HT1A receptor [4] and at human 5-HT1D receptor [6] was under 85% throughout. The “5-HT1A EMAX (%)” value on human 5-HT1A receptor [4] is recorded as 70 ± 5%. For the same molecule, on human 5-HT1B receptor [5] (WT receptor), the “5-HT1B EMAX (%)” value was determined as 54 ± 5%. At human 5-HT1D receptor [6], the “5-HT1D EMAX (%)” value is recorded as 66 ± 6%.
